“And” between values parts separate entries of the source, which are not always exact repeats. Equal values may be shown once.
What was measured:
peroxidase = test: Peroxidase assay in saliva (Amplex Red); type: biochemical; settings: compound prepared at 500 ppm, 30 minutes, FIGS. 26-29
Experimental: To determine the effect of various GRAS compounds as inhibitors of peroxidase activity, a standard assay using Amplex® Red (Life Technologies), which releases a fluorescent oxidation product.
The test compounds, such as GRAS materials or cocktails of same, were prepared at a concentration of 500 ppm in distilled water. For the assay, 50 μl samples of test compounds were mixed with 20-30 μl of saliva (either “pooled” or “unpooled”) prior to the addition of Amplex® Red. […] Reactions were allowed to run for 30 minutes during these assays.

α-amylase = target: T1, α-amylase (Homo sapiens, UniProt P0DUB6); test: α-Amylase inhibition saliva screening (chromogenic substrate, absorbance 405 nm); type: biochemical; settings: test compound prepared at 5,000 ppm, 37° C.; for absorbance at 405 nm, single readings: four replicate readings
T1 sequence (P0DUB6 16-511): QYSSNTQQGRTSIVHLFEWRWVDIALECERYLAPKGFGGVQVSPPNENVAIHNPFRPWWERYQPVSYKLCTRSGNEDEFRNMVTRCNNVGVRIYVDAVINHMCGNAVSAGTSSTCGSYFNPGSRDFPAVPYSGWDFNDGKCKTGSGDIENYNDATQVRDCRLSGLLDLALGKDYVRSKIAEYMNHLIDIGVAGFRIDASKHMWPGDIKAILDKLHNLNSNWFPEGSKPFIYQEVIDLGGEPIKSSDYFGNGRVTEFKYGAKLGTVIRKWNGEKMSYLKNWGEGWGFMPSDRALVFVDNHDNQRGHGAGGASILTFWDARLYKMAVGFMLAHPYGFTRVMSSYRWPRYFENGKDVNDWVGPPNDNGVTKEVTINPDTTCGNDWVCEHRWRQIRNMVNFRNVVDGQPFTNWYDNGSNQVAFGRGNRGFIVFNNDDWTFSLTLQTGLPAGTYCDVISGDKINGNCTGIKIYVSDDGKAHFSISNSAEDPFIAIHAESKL
Description: Further details of these five compounds may also be seen in Table 4.

protease = settings: natural protease inhibitors from food; cited from earlier work

Cn1c(=O)c2c(ncn2C)n(C)c1=O [CDI #33, Caffeine]
peroxidase inhibition (peroxidase): significant peroxidase inhibition capabilities

COc1ccc(O)c(C(C)(C)C)c1 [CDI-039, 3-tert--butyl-hydroxyanisole]
peroxidase inhibition (peroxidase): significant peroxidase inhibition capabilities

Aluminum potassium sulfate dodecahydrate [CDI-42]
peroxidase inhibition (peroxidase): significant peroxidase inhibition capabilities | Ave (absorbance at 405 nm) (α-amylase; 0 min): 0.92 | absorbance at 405 nm, single readings (α-amylase; 0 min): 0.80 and 1.13 and 0.90 and 0.84 | absorbance at 405 nm, single readings (α-amylase; 5 min): 1.65 and 2.15 and 1.80 and 1.81 | absorbance at 405 nm, single readings (α-amylase; 15 min): 2.37 and 2.38 and 2.25 and 2.17

Aluminum sulfate hydrate [CDI-34]
Ave (absorbance at 405 nm) (α-amylase; 0 min): 0.40 | absorbance at 405 nm, single readings (α-amylase; 0 min, sulfate hydrate): 0.40 (2×) and 0.36 and 0.45 | Ave (absorbance at 405 nm) (α-amylase; 5 min): 0.50 | absorbance at 405 nm, single readings (α-amylase; 5 min, sulfate hydrate): 0.49 and 0.50 (2×) and 0.52 | Ave (absorbance at 405 nm) (α-amylase; 15 min): 0.56 | absorbance at 405 nm, single readings (α-amylase; 15 min, sulfate hydrate): 0.53 and 0.61 and 0.54 and 0.56

B1: Soybeans: primary soybean protease inhibitor, 20.7-22.3 kDa (protein, UniProt P01070 25-205, looked up)
Trypsin inhibitor A: DFVLDNEGNPLENGGTYYILSDITAFGGIRAAPTGNERCPLTVVQSRNELDKGIGTIISSPYRIRFIAEGHPLSLKFDSFAVIMLCVGIPTEWSVVEDLPEGPAVKIGENKDAMDGWFRLERVSDDEFNNYKLVFCPQQAEDDKCGDIGISIDHDDGTRRLVVSKNKPLVVQFQKLDKESL
Inhibitory power (protease): 1.2 times times weight

From patent publication US8318105B2, “Systems and methods for biomarker analysis” (priority 2010, dated 2012)
